Measured values reported in the NIST ThermoML archive (doi:10.1016/j.tca.2016.05.006).
Numbers after ± are expanded uncertainties.

Details: 298.15 K, 101.33 kPa, Liquid

electrical conductivity (Alternating current cell with electrodes): 9.2e-05 ± 2e-06 S/m
thermal conductivity (Transient line heat source): 0.2438 ± 0.011 W/m/K
SMILES: OCCO [1,2-ethanediol]
